Data from ChEMBL document CHEMBL1201862, “PubChem BioAssay data set” (2004).
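96-well plates; 48 h exposure; 5 concentrations. Endpoints by linear interpolation between flanking doses. Not reached: highest tested concentration assigned. Here, GI50 denotes the concentration required for 50% inhibition of growth.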 Calls of active or inactive are those of the source. No stated cut-off is given here; in the data, active = GI50 up to about 1.1 µM and inactive = higher.

Tests used:
Experiment in all cases: NCI anticancer screen, dose series, 48 h
[1] = tested on: NCI-H522
[2] = tested on: M14
[3] = tested on: OVCAR-4
[4] = tested on: TK-10
[5] = tested on: RPMI-8226
[6] = tested on: HOP-92
[7] = tested on: HCT-15
[8] = tested on: PC-3
[9] = tested on: NCI/ADR-RES
[10] = tested on: SNB-19
[11] = tested on: 786-0
[12] = tested on: CAKI-1
[13] = tested on: LOX IMVI
[14] = tested on: SF-295
[15] = tested on: Hs-578T
[16] = tested on: EKVX
[17] = tested on: HL-60
[18] = tested on: MOLT-4
[19] = tested on: NCI-H23
[20] = tested on: SR

For `O=[N+]([O-])c1cc(Cl)ccc1S(=O)(=O)c1ccccc1`, the GI50 [1] was 57.4 µM (inactive), the GI50 [2] was > 100 µM (inactive) and the GI50 [3] was 24.7 µM (inactive). For the same compound, the GI50 [4] was > 100 µM (inactive), the GI50 [5] was > 100 µM (inactive) and the GI50 [6] was 82 µM (inactive). The GI50 [7] was 27.6 µM, the GI50 [8] was > 100 µM (inactive) and the GI50 [9] was > 100 µM (inactive). For the same compound, the GI50 [10] was > 100 µM (inactive), the GI50 [11] was > 100 µM (inactive) and the GI50 [12] was > 100 µM (inactive). For the same compound, the GI50 [13] was 27.6 µM (inactive), the GI50 [14] was > 100 µM (inactive) and the GI50 [15] was 26.7 µM (inactive). The GI50 [16] was > 100 µM (inactive), the GI50 [17] was 38.9 µM (inactive) and the GI50 [18] was > 100 µM (inactive). The GI50 [19] was 54.1 µM (inactive).
In the case of `CN(N)/N=N/c1[nH]cnc1[N+](=O)[O-]`, the GI50 [1] is reported as > 100 µM (inactive), the GI50 [2] is reported as > 100 µM (inactive) and the GI50 [3] is reported as 56.1 µM (inactive). The GI50 [4] was > 100 µM (inactive), the GI50 [5] was 22 µM (inactive) and the GI50 [7] was greater than 100 µM. For the same compound, the GI50 [8] was > 100 µM (inactive), the GI50 [9] was 35.4 µM (inactive) and the GI50 [11] was 18.7 µM (inactive). For the same compound, the GI50 [12] was 20.8 µM (inactive), the GI50 [13] was 39.2 µM (inactive) and the GI50 [14] was > 100 µM (inactive). For the same compound, the GI50 [15] was > 100 µM (inactive), the GI50 [16] was 94.8 µM (inactive) and the GI50 [17] was 2.99 µM (inactive). For the same compound, the GI50 [18] was 14.6 µM (inactive) and the GI50 [19] was > 100 µM (inactive).
For `CN/N=C(/C=C/c1ccccc1)C(C)C`, the GI50 [1] was 73.3 µM (inactive), the GI50 [2] was > 100 µM (inactive) and the GI50 [3] was > 100 µM (inactive). The GI50 [4] was > 100 µM (inactive), the GI50 [5] was > 100 µM (inactive) and the GI50 [7] was greater than 100 µM. For the same compound, the GI50 [8] was > 100 µM (inactive), the GI50 [9] was > 100 µM (inactive) and the GI50 [10] was > 100 µM (inactive). For the same compound, the GI50 [11] was > 100 µM (inactive), the GI50 [12] was > 100 µM (inactive) and the GI50 [13] was > 100 µM (inactive). The GI50 [20] was > 100 µM (inactive), the GI50 [14] was > 100 µM (inactive) and the GI50 [15] was > 100 µM (inactive). For the same compound, the GI50 [16] was > 100 µM (inactive), the GI50 [17] was > 100 µM (inactive) and the GI50 [18] was > 100 µM (inactive). For the same compound, the GI50 [19] was > 100 µM (inactive).
For `Nc1cccc(OCC2CCCN3CCCCC23)c1` (stereo unspecified), the GI50 [2] was 20 µM (inactive), the GI50 [3] was 23.2 µM (inactive) and the GI50 [4] was 17.4 µM (inactive). For the same compound, the GI50 [5] was 15.2 µM (inactive), the GI50 [6] was 28.5 µM (inactive) and the GI50 [7] was 17.5 µM. For the same compound, the GI50 [8] was 16.9 µM (inactive), the GI50 [9] was 19.3 µM (inactive) and the GI50 [10] was 17.9 µM (inactive). For the same compound, the GI50 [11] was 15.6 µM (inactive), the GI50 [12] was 17.6 µM (inactive) and the GI50 [13] was 15.8 µM (inactive). For the same compound, the GI50 [14] was 17.8 µM (inactive), the GI50 [15] was 16.7 µM (inactive) and the GI50 [16] was 17.2 µM (inactive). The GI50 [17] was 20.1 µM (inactive), the GI50 [18] was 20.9 µM (inactive) and the GI50 [19] was 17.7 µM (inactive).
For `CC(C)(C)OC(=O)N(O)[C@@H]1CC[C@H](n2cnc3c(N)ncnc32)C1`, the GI50 [1] was > 100 µM (inactive), the GI50 [2] was > 100 µM (inactive) and the GI50 [3] was > 100 µM (inactive). For the same compound, the GI50 [4] was > 100 µM (inactive), the GI50 [5] was > 100 µM (inactive) and the GI50 [6] was > 100 µM (inactive). For the same compound, the GI50 [7] was greater than 100 µM, the GI50 [8] was > 100 µM (inactive) and the GI50 [9] was > 100 µM (inactive). The GI50 [10] was > 100 µM (inactive), the GI50 [11] was > 100 µM (inactive) and the GI50 [13] was > 100 µM (inactive). For the same compound, the GI50 [20] was > 100 µM (inactive), the GI50 [14] was > 100 µM (inactive) and the GI50 [15] was > 100 µM (inactive). For the same compound, the GI50 [16] was > 100 µM (inactive), the GI50 [18] was > 100 µM (inactive) and the GI50 [19] was > 100 µM (inactive).
With `CC1SCc2nc3ccccc3n21` (stereo unspecified) the GI50 [1] was > 100 µM (inactive), the GI50 [2] was > 100 µM (inactive) and the GI50 [3] was > 100 µM (inactive). The GI50 [4] was > 100 µM (inactive), the GI50 [5] was > 100 µM (inactive) and the GI50 [6] was > 100 µM (inactive). The GI50 [7] was greater than 100 µM, the GI50 [8] was > 100 µM (inactive) and the GI50 [9] was > 100 µM (inactive). The GI50 [10] was > 100 µM (inactive), the GI50 [11] was > 100 µM (inactive) and the GI50 [12] was > 100 µM (inactive). For the same compound, the GI50 [13] was > 100 µM (inactive), the GI50 [14] was > 100 µM (inactive) and the GI50 [15] was > 100 µM (inactive). The GI50 [16] was > 100 µM (inactive), the GI50 [17] was > 100 µM (inactive) and the GI50 [18] was > 100 µM (inactive). The GI50 [19] was > 100 µM (inactive).
In the case of `O=c1nc2n3c4c(cccc4nc-2c(=O)[nH]1)CCC3`, the GI50 [1] is reported as 27.2 µM (inactive), the GI50 [2] is reported as > 100 µM (inactive) and the GI50 [3] is reported as 86.7 µM (inactive). The GI50 [4] was > 100 µM (inactive), the GI50 [5] was > 100 µM (inactive) and the GI50 [7] was greater than 100 µM. The GI50 [8] was > 100 µM (inactive), the GI50 [9] was > 100 µM (inactive) and the GI50 [10] was > 100 µM (inactive). The GI50 [11] was > 100 µM (inactive), the GI50 [12] was > 100 µM (inactive) and the GI50 [13] was > 100 µM (inactive). For the same compound, the GI50 [14] was > 100 µM (inactive), the GI50 [15] was 28.2 µM (inactive) and the GI50 [16] was > 100 µM (inactive). For the same compound, the GI50 [17] was 70.8 µM (inactive), the GI50 [18] was > 100 µM (inactive) and the GI50 [19] was > 100 µM (inactive).
For `CN(C)CCOC(=O)c1ccc(N)cc1`, the GI50 [1] was 20.4 µM (inactive), the GI50 [2] was 17.6 µM (inactive) and the GI50 [3] was 31.6 µM (inactive). For the same compound, the GI50 [4] was 44.4 µM (inactive), the GI50 [5] was 24.4 µM (inactive) and the GI50 [6] was 12.6 µM (inactive). For the same compound, the GI50 [7] was greater than 100 µM, the GI50 [8] was 12.1 µM (inactive) and the GI50 [9] was 51.2 µM (inactive). The GI50 [10] was 56.5 µM (inactive), the GI50 [11] was 44.8 µM (inactive) and the GI50 [12] was 32.3 µM (inactive). For the same compound, the GI50 [13] was 28.7 µM (inactive), the GI50 [14] was 47.8 µM (inactive) and the GI50 [15] was 32.4 µM (inactive). The GI50 [17] was 39 µM (inactive), the GI50 [18] was 28.2 µM (inactive) and the GI50 [19] was 74.1 µM (inactive).
